{"source": "patent US10071960B1", "about": "“Enaminone-grafted trithiocarbonate with anticancer and antimicrobial activity” (KING SAUD UNIVERSITY, priority 2017, dated 2018)", "key": {"LoVo Colon cancer cells [1]": {"test_system": "LoVo Colon cancer cells", "assay": "MTT antiproliferative assay, LoVo", "assay_type": "cell-based", "conditions": "Homo sapiens, 48 hours", "experimental": "(§1) HepG2 (human hepatocarcinoma), LoVo (human colorectal adenocarcinoma) and MDA-MB-231 (human breast cancer) cancer cell lines were selected for the in vitro antiproliferative activity. Cells were seeded in 24-well plates at a density of 50,000 cells/well for 24 hours for adherent. After 24 hours, cells were treated with increasing concentrations of compound 3 or an equal volume of vehicle (DMSO) as a control and were incubated for 48 hours. 100 μL of MTT reagent (5 mg/ml) were added. The plates were incubated for 2 hours and absorbance was determined at 540 nm in an ELISA plate reader (Thermo, USA). Percentages of cell survival were calculated as follows: % cell survival=(absorbance of treated cells/absorbance of cells with vehicle solvent)×100. The 50% inhibitory concentration (IC50) was calculated from the dose-response curve obtained by plotting the percentage of cell survival versus the concentration of compound 3."}, "HepG2 Liver cancer cells": {"test_system": "HepG2 Liver cancer cells", "assay": "MTT antiproliferative assay, HepG2", "assay_type": "cell-based", "conditions": "Homo sapiens, 48 hours", "experimental": "as §1"}, "[2]": {"test_system": "MDA-MB-231 Breast Cancer cells", "assay": "MTT antiproliferative assay, MDA-MB-231", "assay_type": "cell-based", "conditions": "Homo sapiens, MDA-MB-231 cells, 48 hours", "experimental": "as §1"}, "[3]": {"test_system": "Cryptococcus neoformans Wild strain", "assay": "In vitro antimicrobial activity (MIC, MFC)", "assay_type": "cell-based", "conditions": "Cr. neformans; FIGS. 4 and 5", "experimental": "(§2) Biological activity of compound 3 as antimicrobial agents was performed according to (Lam et al. 2016). Lyophilized cultures of Streptococcus nutans ATCC 35668, Bacillus subtilis and Brevibacillus laterosporus Wild strains (Gram positive bacteria), Salmonella typhi Wild strain (Gram negative bacteria), Candid albicans ATCC 60193 (yeast), Cryptococcus neoformans Wild strain (yeast), Aspergillus fumigatus AUMC 8794 (mold), and Penicillium chrysogenum AUMC (mold) were grown aerobically on the appropriate medium and in incubating conditions before minimal inhibitory, minimal Bactericidal, and minimal fungicidal concentration testing (MIC, MBC, and MFC). […]\n(§3) The total count of microbes was counted by measurement of bacterial and yeast cells; and spores of mold using hemocytometer and account at 400×.\n(§4) The bacterial suspensions were prepared from bacterial cultures which gave an optical density reading of ˜0.9 at 620 nm. […]\n(§5) To determine MIC of the compound 3, a Mueller-Hinton broth and Potato dextrose broth were used for bacteria and fungi, respectively. […] After incubation, the microbial growth was detected in the wells by p-iodonitrotetrazolium violet (Sigma, USA) reagent. […] Data are expressed as mean±s.d. of the biological replicates and statistically analyzed using One-Way ANOVA analysis using Tukey test (P<0.05) (SPSS, 13.0)."}, "[4]": {"test_system": "Candida albicans ATCC 60193", "assay": "In vitro antimicrobial activity (MIC, MFC)", "assay_type": "cell-based", "conditions": "C. albicans; FIGS. 4 and 5", "experimental": "as §2, §3, §4, §5"}, "LoVo Colon cancer cells [5]": {"test_system": "LoVo Colon cancer cells", "assay": "LDH release cytotoxicity assay, LoVo", "assay_type": "cell-based, human", "conditions": "treated with IC50 for 48 hours; FIGS. 7 and 8A-8F", "experimental": "Lactate dehydrogenase (LDH) assay was performed to assess the LDH release into the media following compound 3 treatments (IC50) on HepG2, LoVo and MDA-MB-231 cells after 48 hours of incubation. LDH cytotoxicity assay was carried out using an in vitro toxicology assay kit (Sigma Aldrich Inc., USA), according to protocol in the user's manual. The amount of LDH released in culture media was measured at 490 nm using an ELISA plate reader (Thermo, USA)."}, "[6]": {"test_system": "Hepg2, LoVo, and MDA-MB-231 cell lines", "assay": "MTT growth inhibition, all three tested human tumor cells", "assay_type": "cell-based", "conditions": "48 hours, read-out: IC50 concentrations, range over all three tested human tumor cells", "experimental": "as §1"}, "[7]": {"test_system": "Brevibacillus laterosporus Wild strain", "assay": "In vitro antimicrobial activity (MIC, MBC)", "assay_type": "cell-based", "conditions": "FIGS. 4 and 5", "experimental": "as §2, §3, §4, §5"}, "Bacillus subtilis": {"test_system": "Bacillus subtilis", "assay": "In vitro antimicrobial activity (MIC, MBC)", "assay_type": "cell-based", "conditions": "FIGS. 4 and 5", "experimental": "as §2, §3, §4, §5"}}, "data": [{"smiles": "CCOC(=O)C(=CN(C)C)SC(=S)SC(=CN(C)C)C(=O)OCC", "note": "(stereo in doubt) [compound 3, (Z)-ethyl 3-(dimethylamino)-2-(((((Z)-1-(dimethylamino)-3-ethoxy-3-oxoprop-1-en-2-yl)thio)carbonothioyl)thio)acrylate]", "values": [{"measurement": "IC50", "setting": "LoVo Colon cancer cells [1]", "value": 37.5, "unit": "µg/mL"}, {"measurement": "IC50", "setting": "HepG2 Liver cancer cells", "value": 38, "unit": "µg/mL"}, {"measurement": "IC50", "setting": "[2]", "value": 45, "unit": "µg/mL"}, {"measurement": "MIC, MBC and MFC: susceptibility compared to other tested microbes", "setting": "[3]", "value": "more susceptible"}, {"measurement": "MIC, MBC and MFC: susceptibility compared to other tested microbes", "setting": "[4]", "value": "more susceptible"}, {"measurement": "cytotoxic effects (LDH release, morphology) compared between tumor cell lines", "setting": "LoVo Colon cancer cells [5]", "value": "more active"}, {"measurement": "IC50", "setting": "[6]", "value": "37.5 to 45", "unit": "µg/mL"}, {"measurement": "MIC, MBC and MFC: susceptibility compared to other tested microorganisms", "setting": "[7]", "value": "resistant"}, {"measurement": "MIC, MBC and MFC: susceptibility compared to other tested microorganisms", "setting": "Bacillus subtilis", "value": "resistant"}]}]}
